Tested on: MelaKuits® living skin equivalent models
Test: skin brightening efficacy in UVB-irradiated living skin equivalent models, lightness (L*) by DSM II Color Meter
Assay type: cell-based
Protocol: The skin brightening efficacy were evaluated by using MelaKuits® living skin equivalent models (Biocell, Xi'an, China). A series of identical living skin equivalent models were constructed by following manufacturer's instruction. After the models were constructed, the models were irradiated by UVB with an energy density of 50 mJ/cm^2, followed by culturing in fresh medium with or without actives for one day. Such irradiating and culturing process were repeated by using refreshed same medium for seven times. The lightness (L*) of each model were measured by using a DSM II Color Meter. The measurements of lightness were repeated at least three times. Similar experiments were conducted as that in Example 1 except that niacinamide was used and different batch of live equivalent models were used. The original lightness of the live equivalent models was different from that in Example 1.

## CCCCCCC(O)CCCCCCCCCCC(=O)O (stereo not drawn) [12-HSA, 12-hydroxystearic acid]
Example 1 batch, UVB 50 mJ/cm^2, irradiating and culturing repeated seven times, 10 μM of 12-HSA in medium (UVB + medium only 32.4; blank control 43.4)
  Average lightness (L*): 35.2

## NC(=O)c1cccnc1 [niacinamide, reference compound]
Example 2, different batch of models, UVB, 3 wt % of niacinamide in medium (UVB + medium only 66.86; blank control 71.43)
  Average lightness (L*): 71.15

## Lysine carboxymethyl cysteinate [LCC]
LCC 0.27 wt % added to 3 wt % niacinamide, Table 2
  improvement of the skin brightening efficacy of niacinamide (in words): not capable of improving the skin brightening efficacy of niacinamide

From patent US20250032383A1, “PERSONAL CARE COMPOSITION” (Conopco, Inc., d/b/a UNILEVER, priority 2021, published 2025)
